According to patent US20170168067A1, “CHROMATIN-ACTIVITY-BASED CHEMOPROTEOMIC (CHAC) METHODS AND SYSTEMS FOR DISEASE MARKER DISCOVERY AND DEVELOPMENT” (The University of North Carolina at Chapel Hill, priority 2014, published 2017):
Each block holds one compound with its values, some of them ahead of it. Peptide text beside a SMILES is read from it. * marks the point of attachment. Cbz = O=C(OCc1ccccc1)*

Assays:
c-Myc [1] = assay: c-Myc accumulation after proteasome inhibition, immunoblot; assay type: cell-based, mouse; settings: LPS-primed, 10 mM MG-132
Protocol: Raw264.7 or TLR4/MD2/CD14 293 cell lines were primed with 100 ng/ml^−1 LPS for 24 h and then treated with 1 mg/ml^−1 cycloheximide (Sigma-Aldrich; #C4859) for indicated time. Cells were harvested and subjected to immunoblot analysis by using anti-c-Myc antibody. Exposed films of immunoblot were scanned and quantified by ImageJ densitometry software. The intensity of each band was plotted in scatter plot and c-Myc half-life was determined on computed curve. Raw264.7 cells were primed with 100 ng/ml^−1 LPS for 24 h and then treated with 10 mM MG-132 for time indicated. C-Myc accumulation was reflected in immunoblot against c-Myc by short- and long-exposure. b-Actin and g-Tubulin were represented as loading controls.

G9a [2] = assay: ChIP abundance of G9a within T-class promoters; assay type: cell-based, mouse; settings: pre-treated TL cells
Protocol: (§1) ChIP experiments for studying histone modifiers and TFs were carried out in dual crosslinking way (Porro et al., 2007) with minor modifications. Cells were fixed using 2 mM DSG (disuccinimidyl glutarate, ProteomChem #c1104) for 45 min. Formaldehyde (1% v/v) was then added and incubated for 15 min. Crosslinking reactions were quenched by adding glycine to 0.1 M, followed by PBS washing. Cells were scraped and nuclei were pelleted by 0.5% NP-40 lysis buffer (50 mM pH 8.0 Tris-HCl, 85 mM KCl, 0.5% NP-40). The nuclear fraction was extracted with RIPA buffer (50 mM pH 8.0 Tris-HCl, 150 mM NaCl, 1 mM EDTA, 1% Triton-X-100, 0.1% SDS, 0.1% sodium deoxycholate) and sonicated to 200 to 1,000 bp DNA fragments, then incubated overnight with the antibody. The antibody complexes were linked to protein A/salmon sperm DNA beads (Cell Signaling, cat #9007) and washed thoroughly. The complexes were then eluted from the beads by 1% SDS, and incubated with NaCl to reverse the crosslinked products. Later, proteins were digested by protease-K and the released DNA was purified by QIAquick PCR purification Kit (Qiagen, cat #28104), and processed to quantitative PCR assay. ChIP experiments for studying histone post-PTMs were started from a one-step fixation of 1% (v/v) formaldehyde for 10 min, followed by the same steps as dual crosslinking ChIP described above.

MTA1 = assay: ChIP-PCR binding of MTA1 to T-class genes; assay type: cell-based, mouse; settings: treated BMDMs
Protocol: as §1

Raw264.7 cells = assay: Clonogenic survival assay; assay type: cell-based, mouse; parameters: dose or concentration left out as unconfirmed
Protocol: Raw264.7 cells were counted and plated in six-well cell culture plates with 50, 100 and 200 viable cells in duplicated wells. Cells were primed with 100 ng/ml^−1 LPS for […] to reach the condition of ET and replenished with fresh media. […] After 9-day cell growth, cell colonies were washed with PBS, fixed with a mixture of methanol-acetic acid (3:1 in volume ratio) for 10 min, stained with 10% Giemsa (Ricca Chemical Company, Arlington, Tex., United States of America) for 30 min, gently washed with water and air dried. The colonies containing more than 20 cells were counted and the percentage of the survived cells under each condition was determined compared with the number of colonies on non-LPS or UNC0638-treated plates.

H3K9me2 = assay: ChIP analysis with anti-H3K9me2 antibody in BMDMs; assay type: cell-based, mouse; settings: BMDMs treated prior to LPS stimulation; inhibitor pre-treated TL cells compared with NL
Protocol: as §1

H3K27 = assay: immunoblot analysis of methylated H3K27; assay type: cell-based, mouse; settings: treated cells
Protocol: (§2) Core histone proteins were prepared by Histone Purification Mini Kit (Active Motif; cat#40026). Adhered cells were washed with prewarmed serum-free media twice and were then harvested. The pellet was lysed with 1.5 ml extraction buffer per 2×10^7 cells and homogenized by repetitive pipetting. The cell lysate was processed under agitation for 2 h at 4° C. before the crude histone was clarified, neutralized and loaded onto the column. Histone proteins were purified by a C8 column and were precipitated by 4% perchloric acid according to the manufacturer's instructions and were resolved in HPLC water. All steps were processed on ice or in cold room, for the maximum preservation of histone modifications.

c-Myc [3] = assay: ChIP-qPCR binding of c-Myc to gene loci; assay type: cell-based, mouse
Protocol: as §1

G9a [4] = biological target: T1, G9a (Homo sapiens, UniProt Q96KQ7); settings: Vedadi et al., 2011; cited from earlier work
T1 sequence (Q96KQ7 1-1210): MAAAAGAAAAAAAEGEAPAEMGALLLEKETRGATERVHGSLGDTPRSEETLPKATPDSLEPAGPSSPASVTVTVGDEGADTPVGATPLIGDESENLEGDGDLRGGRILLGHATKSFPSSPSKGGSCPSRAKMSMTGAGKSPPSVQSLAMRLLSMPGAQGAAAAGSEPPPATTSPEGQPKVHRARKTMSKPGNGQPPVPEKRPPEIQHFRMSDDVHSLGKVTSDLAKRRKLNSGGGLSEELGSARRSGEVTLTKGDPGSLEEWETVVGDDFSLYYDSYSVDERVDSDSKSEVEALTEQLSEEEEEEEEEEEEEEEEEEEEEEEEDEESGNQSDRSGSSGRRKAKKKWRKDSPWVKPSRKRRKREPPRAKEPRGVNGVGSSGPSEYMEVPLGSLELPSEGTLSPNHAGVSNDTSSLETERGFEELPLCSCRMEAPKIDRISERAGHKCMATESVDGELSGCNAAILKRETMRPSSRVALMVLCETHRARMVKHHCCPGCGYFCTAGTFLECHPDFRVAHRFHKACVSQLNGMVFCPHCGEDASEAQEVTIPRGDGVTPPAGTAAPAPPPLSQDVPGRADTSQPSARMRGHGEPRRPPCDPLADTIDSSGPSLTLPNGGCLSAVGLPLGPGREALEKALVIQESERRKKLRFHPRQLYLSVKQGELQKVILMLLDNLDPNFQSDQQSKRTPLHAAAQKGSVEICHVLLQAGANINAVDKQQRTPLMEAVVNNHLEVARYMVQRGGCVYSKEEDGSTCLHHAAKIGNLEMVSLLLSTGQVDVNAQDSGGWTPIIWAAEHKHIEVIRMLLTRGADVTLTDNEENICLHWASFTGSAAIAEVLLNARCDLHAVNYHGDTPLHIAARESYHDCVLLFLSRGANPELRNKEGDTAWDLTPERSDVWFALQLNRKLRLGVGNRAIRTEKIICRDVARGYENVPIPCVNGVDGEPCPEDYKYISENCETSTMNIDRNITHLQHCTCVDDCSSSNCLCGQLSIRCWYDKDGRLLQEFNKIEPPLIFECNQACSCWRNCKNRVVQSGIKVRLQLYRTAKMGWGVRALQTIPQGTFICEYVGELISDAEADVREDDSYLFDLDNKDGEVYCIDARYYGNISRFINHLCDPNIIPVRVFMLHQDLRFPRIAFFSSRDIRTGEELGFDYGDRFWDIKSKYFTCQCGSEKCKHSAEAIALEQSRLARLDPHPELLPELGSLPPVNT

H3K36me2 = assay: immunoblot analysis of dimethylated H3K36; assay type: cell-based, mouse; settings: treated vs non-treated BMDMs, TL
Protocol: as §2

HDAC1 = assay: ChIP-PCR binding of HDAC1 to T-gene (IL6) promoter; assay type: cell-based, mouse; settings: treated BMDMs during ET
Protocol: as §1

BMDM secretome = assay: Label-free quantitative analysis of macrophage secretome; assay type: cell-based, mouse; settings: BMDMs under TL pre-treated with 250 nM for 16 h
Protocol: Referring now to FIG. 1, cells were then either left unstimulated (N) or subjected to a single LPS challenge at 500 ng/ml^−1 for indicated hours (NL) or first primed with 100 ng/ml^−1 LPS to induce the ET for 24 h, followed by the second LPS challenge at 500 ng/ml^−1 for indicated hours (TL). Before the LPS challenge, cells were washed once and cultured in serum-free DMEM without phenolred, containing 1 mM sodium pyruvate and 10 mM L-glutamine. The secreted proteins were harvested and prepared (Meissner et al., 2013).
LFQ secretome analyses were performed via reversed phase LC-MS/MS using a Proxeon 1000 nano LC system coupled to an Q Exactive mass spectrometer (Thermo Scientific). […]
Label-free quantitation was based on the peak area (Cox et al., 2008; Gunawardena et al., 2013; Gunawardena et al., 2011; Porro et al., 2007). The measured area under the curve of m/z and retention time aligned extracted ion chromatogram (XIC) of a peptide was performed via the label-free quantitation module found in MaxQuant™ (vera 1.3.0.5) (Cox et al., 2008). All replicates (biological and technical replicates) of each experimental conditions: N, NL-16 h, TL-16 h, were included in the LFQ experimental design with protein-level quantitation and normalization performed using unique and razor peptide features corresponding to identifications filtered with a peptide FDR of 0.01 and protein FDR of 0.05. […]

Structure (SMILES): CC(C)C[C@@H](C=O)NC(=O)[C@H](CC(C)C)NC(=O)[C@H](CC(C)C)NC(=O)OCc1ccccc1 [MG-132] (Cbz-Leu-Leu-Leu-aldehyde)
c-Myc level with post-treatment time (c-Myc [1]; G9a-KD Raw264.7 cells): progressive accumulation
c-Myc level with longer post-treatment time (c-Myc [1]; wild-type Raw264.7 cells (presence of G9a)): reduced

Structure (SMILES): O=C(CCCCCCC(=O)Nc1ccccc1)NO [SAHA]
abundance of G9a within the T-class promoters (G9a [2]): reduced

TL-specific binding of MTA1 to T-class genes (MTA1): diminished
c-Myc binding to the NT-genes (c-Myc [3]): not affected
c-Myc binding to the loci of IL6 (c-Myc [3]; treated BMDMs under TL): diminished
c-Myc binding to IL6, IP-10 and p21 (c-Myc [3]; under TL): reduced
IL6-specific binding of HDAC1 (HDAC1): diminished
Structure (SMILES): COc1cc2c(NC3CCN(C(C)C)CC3)nc(C3CCCCC3)nc2cc1OCCCN1CCCC1 [UNC0638, 2-Cyclohexyl-N-(1-isopropylpiperidin-4-yl)-6-methoxy-7-(3-(pyrrolidin-1-yl)propoxy) quinazolin-4-amine]
percentage of survived cells (Raw264.7 cells; cells under TL, 9-day growth): significantly reduced
percentage of survived cells (Raw264.7 cells; non-treated (non-LPS) wild-type cells): little effect
change in H3K9me2 (ChIP) (H3K9me2): greater decreases
methylated level of H3K27 (H3K27): reduced
change in abundance of G9a (G9a [4]): little change
level of H3K36me2 (H3K36me2): decreased
share of 992 identified proteins showing repressed releases whose secretion levels increased (BMDM secretome): 45%
